Assay results reported in patent US6960559B1, “Neurite growth regulatory factors” (University of Zurich, priority 1988, dated 2005).
“And” between values parts separate entries of the source, which are not always exact repeats. Identical values can stand only once. Like-named read-outs stand apart in the source and are kept apart here. Where a SMILES comes first, the peptide text is derived from it. [ ]: non-standard residue; d: D form. The star is where a group is joined. Sta = CC(C)C[C@H](N)[C@@H](O)CC(=O)O; Isovaleryl = CC(C)CC(=O)*; Cbz = O=C(OCc1ccccc1)*

Tests used:
C6 cells [1] = test: C6 cell spreading on CNS myelin or PLYS with protease inhibitors; assay type: cell-based, rat; conditions: for Inhibition on CNS (%): spreading on PLYS minus spreading on CNS myelin
Protocol: Rat C6, mouse NIH 3T3 and B16 cells were cultured in Dulbecco's modified Eagle's medium (DMEM) supplemented with 10% fetal calf serum (FCS), usually to maximally 70-80% confluency. Cells were harvested with a short trypsin treatment (0.1% in Ca^2+/Mg^2+-free Hank's medium for 90 seconds) stopped by addition of FCS in excess, collected by centrifugation. Cells were resuspended in either DMEM/FCS or defined serum-free medium (MEM) and used for experiments. Dissociated rat CNS glial cells were prepared starting from optic nerves of 6-7 days old Lewis rats as described in Section 6.1.1, supra and plated into poly-D-lysine (PLYS) coated wells (100 mm^2, 100 μl medium) at a density of 20,000 cells per well. The culture medium was an enriched L15 medium with 5% rat serum, penicillin and streptomycin. C6, 3T3 and B16 cells were added to 2 day old cultures at a concentration of 30,000 cells per well, incubated for two hours and fixed with warm 4% formalin in phosphate buffer. Inhibitory oligodendrocytes were identified by double labelling using the specific antibodies O1 and O4 (see Section 6.1.3, supra).
Myelin from rat spinal cord (CNS) or sciatic nerve (PNS) purified on a discontinuous sucrose gradient as described in Section 6.1.5., was dried overnight onto PLYS coated wells (20 μg protein/well of 100 mm^2 surface). Unbound membranes were removed by three washes with Ca^2+/Mg^2+-free Hank's solution. Myelin coated wells were immediately used in substrate testing assays by the addition of 9,000 cells (C6, 3T3, or B16) per cm^2. Alternatively, we used extracted CNS myelin protein, or SDS-PAGE purified 35 and 250 kD inhibitory proteins reconstituted in liposomes (see Section 7.1.5, supra). Experiments were scored at different time points using a phase contrast microscope equipped with a photocamera. Quantifications were done using a surface integration program; three arbitrary fields were photographed for each well at a magnitude of 80×, at least 25 cells per picture were measured. Each point represents the mean of at least 3 wells±SEM. Results are expressed as μ^2 of projected cell surface, or as degree, which was calculated by subtracting from the projected surface value of a spreading cell, the surface value of a completely spheric cell.

3T3 cells = test: Treatment of CNS myelin with C6 plasma membranes, 3T3 spreading and 3H-thymidine incorporation; assay type: cell-based, mouse; conditions: 3T3 spreading on CNS myelin pretreated with C6 plasma membranes
Protocol: C6 cells grown to 80% confluency were washed twice with Hank's medium, and harvested in 20 ml 8.5% sucrose, 50 mM NaCl, 10 mM Tris buffer, pH 7.4, using a rubber policeman. After mechanical homogenization through a series of needles of decreasing size, a low purity plasma membrane fraction was obtained by centrifugation (5 minutes at 3000×g, 10 minutes at 8000×g, and then 2 hours at 100,000×g). A higher purity fraction was isolated by loading the material on a discontinuous sucrose gradient, containing 50 mM NaCl, 10 mM Tris, pH 7.4 (Quigley, 1976, J. Cell Biol. 71: 472-486). 20-40% sucrose interphase (C6 plasma membranes fraction) and 40-60% sucrose interphase (C6 mitochondrial fraction) were collected, washed in Hank's medium and resuspended in MEM.
CNS myelin coated PLYS wells were prepared as described in the previous section, but instead of being immediately tested as substrate, they were first incubated with 50 μl of C6 plasma membranes (containing 0.8 mg protein/ml MEM) at 37° for 30 minutes. Dishes were then rinsed twice with Hank's medium and immediately used as substrates for 3T3 cells. In some experiments, protease blockers were added to the membranes using 10 times concentrated solutions.

C6 cells [2] = test: C6 cell attachment and spreading on rat cerebellar frozen sections; assay type: cell-based; conditions: 1,10-phenanthroline 50-300 μM; cbz-tyr-tyr 100 μM
Protocol: Adult rat cerebellum frozen sections were prepared and dried on glass coverslips. 70,000 C6, 3T3, or B16 cells in 100 μl were added to each well containing slices previously rinsed with cold DMEM/FCS. Cultures were incubated for 2 days at 37° C. Cultures were then fixed and stained with cresyl violet. Three to four cerebellum slices were used per point per experiment, with each experiment being repeated at least 2 times.

C6 glioblastoma cells = test: cells; assay type: cell-based, rat; conditions: Rattus norvegicus, 2 h
Protocol: Rat C6 glioblastoma cells (Benda et al., 1968, Science 161:370-371) were cultured in Dulbecco's modified Eagle's medium (DMEM) supplemented with 10% fetal calf serum (FCS), usually to maximally 70-80% confluency (Paganetti et al., 1988, J. Cell Biol. 107:2281-2291). All cell culture media were routinely supplemented with penicillin and streptomycin. Cells were harvested by a short trypsin treatment (0.1% in Ca^2+/Mg^2+-free [CMF] PBS/EDTA solution for 90 seconds) followed by addition of DMEM/10% FCS and centrifugation (600×g, 6 min). The cell pellet was rinsed with 5 ml DMEM/10% FCS and centrifuged. For cell spreading assays, cells were resuspended at 10^6/ml in defined serum-free medium (MEMα) supplemented with 0.2 μg/ml insulin, 0.5 μg/ml transferrin and 0.12 μg/ml bovine serum albumin (BSA). Protease blockers or peptides were added directly to the cell suspension from 10×solutions 10 min before plating.
Spinal cord myelin from young adult Lewis rats was purified on a discontinuous sucrose gradient (Colman et al., 1982, J. Cell Biol. 95:598-608; Schwab and Caroni, 1988, J. Neurosci. 8:2381-2393) and stored in 100 mM sucrose, 25 mM TRIS/HCl pH 7.4 at −80° C. up to 6 months. The myelin suspension ([…]) was incubated for 30 min on poly-D-lysine-coated wells (PLYS-wells). Unbound myelin membranes were removed by rinsing twice with CMF-Hank's and once with MEMα. Myelin-coated wells were used immediately for the spreading assay by adding 9'000 C6 cells per cm^2. Experiments were scored as described (Paganetti et al., 1988, J. Cell Biol. 107:2281-2291).

[3] = test system: C6 plasma membrane associated metalloendoprotease; test: Enzyme assay: cbz-FAF[125I]Y-NH2 degradation by C6 plasma membranes with protease blockers; assay type: biochemical, rat
Protocol: For most experiments, 70-80% confluent cell layers (1 cm^2 wells, 100 μl MEMα) or 2-5 μg C6 plasma membrane (100 μl MEMα) were used. […] If indicated, cell layers or plasma membrane suspensions were preincubated for 30 min with protease blockers or peptides. NEM or iodacetamide incubations of plasma membranes were performed at pH 8.5. The incubation was stopped by loading a 10 μl aliquot of the incubation medium on a thin layer chromatography plate (10 cm height, Kieselgel 60 F254, MERCK, Germany) and air dried. […] Plates were then air dried and exposed on Kodak X-OMAT films (NY, USA) with an intensifying screen. To identify the degradation products on thin-layer chromatography, we run reference peptides under the same conditions.
For the quantification of the activity, the reaction was stopped by addition of an equal volume of chloroform. […] Activity is expressed as % radioactivity contained in the aqueous phase. 100% is the sum of the radioactivity of both phases.

cbz-FAF[^125I]Y-NH2 = test: Degradation of cbz-FAF[125I]Y-NH2 by defined proteases and C6 cell fractions; assay type: biochemical
Protocol: Preparation of plasma membrane from C6 cells was performed according to (Raper and Kapfhammer, 1990, Neuron 2:21-29) with some modifications. Briefly, C6 cells were cultured in 30 culture dishes (13.5 cm diameter). At confluency, the culture medium was removed and the cell layers were frozen to −20° C. All subsequent manipulations were performed at 4° C.: cell debris were collected using a rubber policeman in 100 ml CMF-Hank's and further homogenized by 10 strokes in a Dounce homogenizer with teflon plunger. A small aliquot of this suspension was stored at −20° C. and used later (homogenate-fraction). The nuclear pellet was obtained by low speed centrifugation (10 min, 1000×g) in a Sorvall S22 rotor and stored at […] A crude vesicular fraction was obtained by centrifugating the nuclear supernatant in a Sorvall S22 rotor (20,000×g, 30 min), and was resuspended in 10 ml CMF-Hank's. After adding 20 ml 2.25 M sucrose in CMF-Hank's, this suspension was loaded on 4×8 ml 2.25 M sucrose in CMF-Hank's and centrifuged at 80,000×g for 1 h in a Beckman SW28 motor. Plasma membranes were harvested at the top and the mitochondrial fraction at the interphase of this 2 step gradient. Both fractions were diluted 10× with CMF-Hank's and pelleted (Beckman TI80, 22,000×g, 30 min). The two pellets were resuspended in 2 ml MEMα (1.3 mg protein/ml) supplemented with 0.5 mM DTT and stored at −20° C.
For most experiments, 70-80% confluent cell layers (1 cm^2 wells, 100 μl MEMα) or 2-5 μg C6 plasma membrane (100 μl MEMα) were used. Reactions were started by the addition of 10 μl cbz-FAF[^125I]Y-NH2 (SEQ ID NO:2) (2 μM in MEMα, 10,000-30,000 cpm). If indicated, cell layers or plasma membrane suspensions were preincubated for 30 min with protease blockers or peptides. NEM or iodacetamide incubations of plasma membranes were performed at pH 8.5. The incubation was stopped by loading a 10 μl aliquot of the incubation medium on a thin layer chromatography plate (10 cm height, Kieselgel 60 F254, MERCK, Germany) and air dried. Thin layer chromatography was routinely run with CHCl3:CH3OH:CH3COOH 32% (5:3:1). Plates were then air dried and exposed on Kodak X-OMAT films (NY, USA) with an intensifying screen. To identify the degradation products on thin-layer chromatography, we run reference peptides under the same conditions.
For the quantification of the activity, the reaction was stopped by addition of an equal volume of chloroform. This simple procedure allowed us to separate an organic phase containing the unreacted substrate cbz-FAF[^125I]Y-NH2 and an aqueous phase containing the charged degradation products (see also FIG. 30). Activity is expressed as % radioactivity contained in the aqueous phase. 100% is the sum of the radioactivity of both phases.

[4] = C6 cells, 1,10-phenanthroline 0.3 mM, antibody as labelled or none, 150 minutes

Row | Compound | Inhibition on CNS (%) (C6 cells [1]; C6 cells) | Effect on neutralization of CNS myelin inhibitory activity by C6 plasma membranes, in words (3T3 cells) | Effect on cbz-FAF[^125I]Y-NH2 degradation by C6 plasma membranes, in words [3] | Amount necessary to degrade 50% of substrate in 30 min (cbz-FAF[^125I]Y-NH2; 37° C., pH 7.4) | further results
1 | c1cnc2c(c1)ccc1cccnc12 [1,10-phenanthroline] | 67 | completely blocked the C6 plasma membrane effect | completely blocked the degradation |  | Effect on C6 cell spreading on control substrates (PLYS, glass, PNS myelin), in words (C6 cells [1]; 1,10-phenanthroline up to 0.5 mM): did not impair C6 cell spreading; Concentration exerting a general toxic effect on all substrates (C6 cells [1]; C6 cells, 3 hours): above 0.5 mM; % inhibition on CNS lipos. (C6 cells [1]; C6 cells, 1,10-phenanthroline 0.3 mM, antibody as labelled or none): 46%; Spreading value on CNS lipos. (C6 cells [1]; [4]): 1.35 μm^2 10^3; Spreading value on PLYS (C6 cells [1]; [4]): 2.49 μm^2 10^3; IC50 (C6 cells [1]; Rattus norvegicus, C6, Section 9, read-out: Half maximal inhibition (IC50) of C6 spreading on CNS myelin): 200 µM; Maximal inhibition of C6 cell spreading on CNS myelin (C6 cells [1]; after 2 hours in culture): up to 67%; C6 cells on white matter of cerebellar frozen sections, in words (C6 cells [2]): dramatically changed the distribution and behavior of C6 cells on the white matter areas; IC50 (C6 glioblastoma cells; C6 cell spreading on CNS myelin, read-out: IC50 on CNS myelin): 200 µM; IC50 (C6 glioblastoma cells; C6 cell spreading on PLYS, read-out: IC50 PLYS): 600 µM; IC50 [3]: 200 µM; Effect on cbz-FAF[^125I]Y-NH2 degradation by C6 plasma membranes, in words ([3]; listed as o-phenanthroline): blocked completely either activities
2 | NC(=O)[C@H](Cc1ccccc1)NC(=O)CNC(=O)OCc1ccccc1 [cbz-gly-phe-NH2, carbobenzoxy-glycine-phenylalanine-amide] (Cbz-Gly-Phe-NH2) | 55 | completely blocked the C6 plasma membrane effect |  |  | 
3 | CC(=O)N[C@@H](CC(C)C)C(=O)N[C@@H](CC(C)C)C(=O)N[C@H](C=O)CCCNC(=N)N [leupeptine] | 8 | did not inhibit this effect | had no effect |  | 
4 | CC(C)CC(=O)N[C@H](C(=O)N[C@H](C(=O)N[C@@H](CC(C)C)[C@@H](O)CC(=O)N[C@@H](C)C(=O)N[C@@H](CC(C)C)[C@@H](O)CC(=O)O)C(C)C)C(C)C [pepstatine] (Isovaleryl-VV[Sta]A[Sta]-OH) | 3 | did not inhibit this effect | had no effect |  | 
5 | cathepsin D: acidic protease |  |  |  | >100 µg | Amount giving half maximal activity on cbz-FAFY-NH2 (cbz-FAF[^125I]Y-NH2; pH 4.0): 5 ng; Amount necessary to degrade 50% of substrate in 30 min (cbz-FAF[^125I]Y-NH2; pH 4.0): 0.005 µg
6 | collagenase |  |  |  | 3 µg and 3.0 µg | 
7 | trypsin |  |  |  | 0.3 µg | 
